Measurements: US20090304692A1, “TRIAZINE COMPOUNDS AS PI3 KINASE AND MTOR INHIBITORS” (Wyeth, priority 2008, published 2009)
pIC50: −log10 of the molar value. Like-named read-outs stand apart in the source and are kept apart here.

Legend:
Human mTOR (FLAG-TOR) = Human mTOR (FLAG-TOR) (Homo sapiens, UniProt P42345); assay: mTOR kinase assay (DELFIA format, purified enzyme); type: biochemical; conditions: read-out: IC50 mTOR
PI3K-α = PI3K-α (Homo sapiens, UniProt P42336); assay: PI3K-alpha fluorescence polarization assay; conditions: read-out: IC50 PI3Kα
Chain of PI3K-α (P42336 whole entry, species assumed): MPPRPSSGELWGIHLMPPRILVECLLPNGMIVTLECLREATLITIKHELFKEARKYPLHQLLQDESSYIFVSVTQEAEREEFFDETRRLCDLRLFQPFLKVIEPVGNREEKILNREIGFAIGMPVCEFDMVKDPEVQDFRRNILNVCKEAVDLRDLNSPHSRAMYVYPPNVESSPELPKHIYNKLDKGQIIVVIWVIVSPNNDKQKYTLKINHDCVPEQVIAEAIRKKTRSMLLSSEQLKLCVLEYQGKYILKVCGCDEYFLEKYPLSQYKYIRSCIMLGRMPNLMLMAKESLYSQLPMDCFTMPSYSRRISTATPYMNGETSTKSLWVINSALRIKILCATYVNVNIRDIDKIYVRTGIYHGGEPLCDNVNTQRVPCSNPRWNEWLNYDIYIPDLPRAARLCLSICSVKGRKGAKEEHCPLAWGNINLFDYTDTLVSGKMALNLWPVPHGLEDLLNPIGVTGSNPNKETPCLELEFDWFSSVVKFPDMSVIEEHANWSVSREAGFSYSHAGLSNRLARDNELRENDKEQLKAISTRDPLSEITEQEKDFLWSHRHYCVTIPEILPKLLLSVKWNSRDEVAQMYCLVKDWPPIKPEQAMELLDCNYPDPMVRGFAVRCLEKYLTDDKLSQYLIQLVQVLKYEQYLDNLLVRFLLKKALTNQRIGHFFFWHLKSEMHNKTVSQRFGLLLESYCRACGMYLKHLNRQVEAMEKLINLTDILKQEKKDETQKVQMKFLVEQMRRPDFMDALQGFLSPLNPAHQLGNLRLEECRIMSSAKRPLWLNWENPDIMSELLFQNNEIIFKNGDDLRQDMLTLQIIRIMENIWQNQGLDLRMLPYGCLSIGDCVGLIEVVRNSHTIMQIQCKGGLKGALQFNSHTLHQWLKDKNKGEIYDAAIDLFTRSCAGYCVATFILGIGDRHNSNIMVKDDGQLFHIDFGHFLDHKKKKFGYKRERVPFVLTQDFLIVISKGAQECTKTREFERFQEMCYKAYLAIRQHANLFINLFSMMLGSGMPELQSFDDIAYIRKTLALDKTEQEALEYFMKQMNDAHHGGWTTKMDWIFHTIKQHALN
Chain of PI3K-α (P27986 whole entry partner, species assumed): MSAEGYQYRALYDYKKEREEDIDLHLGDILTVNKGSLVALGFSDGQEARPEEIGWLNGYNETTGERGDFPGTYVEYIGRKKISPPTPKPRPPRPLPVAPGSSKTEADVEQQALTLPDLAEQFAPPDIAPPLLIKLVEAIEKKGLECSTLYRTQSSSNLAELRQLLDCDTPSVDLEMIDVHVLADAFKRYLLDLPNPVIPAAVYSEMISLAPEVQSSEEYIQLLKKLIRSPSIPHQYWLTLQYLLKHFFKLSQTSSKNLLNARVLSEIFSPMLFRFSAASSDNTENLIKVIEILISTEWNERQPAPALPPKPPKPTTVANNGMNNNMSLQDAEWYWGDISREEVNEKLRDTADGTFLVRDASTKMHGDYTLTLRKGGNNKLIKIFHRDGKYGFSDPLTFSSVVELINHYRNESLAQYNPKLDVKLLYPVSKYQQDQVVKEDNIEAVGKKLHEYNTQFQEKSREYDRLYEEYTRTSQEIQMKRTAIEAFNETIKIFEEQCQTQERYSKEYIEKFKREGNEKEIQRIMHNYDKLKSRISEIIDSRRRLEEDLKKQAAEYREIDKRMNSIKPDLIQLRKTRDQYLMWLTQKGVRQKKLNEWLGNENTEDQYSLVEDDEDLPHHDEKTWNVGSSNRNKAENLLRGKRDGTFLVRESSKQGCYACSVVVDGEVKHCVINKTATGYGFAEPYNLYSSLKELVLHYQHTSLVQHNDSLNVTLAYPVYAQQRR

PI3K-γ = PI3K-γ (Homo sapiens, UniProt P48736); assay: PI3K-gamma fluorescence polarization assay
Chain of PI3K-γ (P48736 whole entry, species assumed): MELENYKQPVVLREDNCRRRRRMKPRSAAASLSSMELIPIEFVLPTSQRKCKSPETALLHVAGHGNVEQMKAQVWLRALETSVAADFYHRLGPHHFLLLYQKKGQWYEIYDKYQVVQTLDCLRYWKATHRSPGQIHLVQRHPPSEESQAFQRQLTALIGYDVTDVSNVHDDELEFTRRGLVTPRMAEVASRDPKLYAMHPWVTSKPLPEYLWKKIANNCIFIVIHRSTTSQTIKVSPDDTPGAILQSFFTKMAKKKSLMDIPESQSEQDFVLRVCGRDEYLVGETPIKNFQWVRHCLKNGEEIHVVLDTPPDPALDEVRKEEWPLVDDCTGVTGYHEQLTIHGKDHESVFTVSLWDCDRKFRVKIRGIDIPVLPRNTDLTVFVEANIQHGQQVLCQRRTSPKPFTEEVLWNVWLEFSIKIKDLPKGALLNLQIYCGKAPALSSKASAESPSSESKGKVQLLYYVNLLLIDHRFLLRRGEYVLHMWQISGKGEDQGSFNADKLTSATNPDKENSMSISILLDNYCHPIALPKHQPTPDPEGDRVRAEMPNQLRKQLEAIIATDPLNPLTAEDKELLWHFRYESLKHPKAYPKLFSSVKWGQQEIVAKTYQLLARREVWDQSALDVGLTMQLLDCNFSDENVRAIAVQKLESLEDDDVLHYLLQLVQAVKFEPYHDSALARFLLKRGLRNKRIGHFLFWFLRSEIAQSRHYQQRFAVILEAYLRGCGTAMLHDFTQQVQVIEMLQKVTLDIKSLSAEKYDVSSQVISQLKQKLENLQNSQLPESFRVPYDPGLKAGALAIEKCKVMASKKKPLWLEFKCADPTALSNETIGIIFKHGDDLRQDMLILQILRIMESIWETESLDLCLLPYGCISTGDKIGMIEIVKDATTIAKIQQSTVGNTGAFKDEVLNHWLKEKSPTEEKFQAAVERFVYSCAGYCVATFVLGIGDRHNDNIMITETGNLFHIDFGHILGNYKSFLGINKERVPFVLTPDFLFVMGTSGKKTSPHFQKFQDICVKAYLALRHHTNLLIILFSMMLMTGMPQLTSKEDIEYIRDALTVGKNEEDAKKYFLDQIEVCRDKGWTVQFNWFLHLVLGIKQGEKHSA

[1] = system: human prostate LNCap tumor cell line; assay: In vitro cell culture growth assay (MTS), LNCap; conditions: Homo sapiens, LNCaP, 72 h, read-out: IC50 LNCap

Chain of Human mTOR (FLAG-TOR) (P42345 1360-2549 limits assumed): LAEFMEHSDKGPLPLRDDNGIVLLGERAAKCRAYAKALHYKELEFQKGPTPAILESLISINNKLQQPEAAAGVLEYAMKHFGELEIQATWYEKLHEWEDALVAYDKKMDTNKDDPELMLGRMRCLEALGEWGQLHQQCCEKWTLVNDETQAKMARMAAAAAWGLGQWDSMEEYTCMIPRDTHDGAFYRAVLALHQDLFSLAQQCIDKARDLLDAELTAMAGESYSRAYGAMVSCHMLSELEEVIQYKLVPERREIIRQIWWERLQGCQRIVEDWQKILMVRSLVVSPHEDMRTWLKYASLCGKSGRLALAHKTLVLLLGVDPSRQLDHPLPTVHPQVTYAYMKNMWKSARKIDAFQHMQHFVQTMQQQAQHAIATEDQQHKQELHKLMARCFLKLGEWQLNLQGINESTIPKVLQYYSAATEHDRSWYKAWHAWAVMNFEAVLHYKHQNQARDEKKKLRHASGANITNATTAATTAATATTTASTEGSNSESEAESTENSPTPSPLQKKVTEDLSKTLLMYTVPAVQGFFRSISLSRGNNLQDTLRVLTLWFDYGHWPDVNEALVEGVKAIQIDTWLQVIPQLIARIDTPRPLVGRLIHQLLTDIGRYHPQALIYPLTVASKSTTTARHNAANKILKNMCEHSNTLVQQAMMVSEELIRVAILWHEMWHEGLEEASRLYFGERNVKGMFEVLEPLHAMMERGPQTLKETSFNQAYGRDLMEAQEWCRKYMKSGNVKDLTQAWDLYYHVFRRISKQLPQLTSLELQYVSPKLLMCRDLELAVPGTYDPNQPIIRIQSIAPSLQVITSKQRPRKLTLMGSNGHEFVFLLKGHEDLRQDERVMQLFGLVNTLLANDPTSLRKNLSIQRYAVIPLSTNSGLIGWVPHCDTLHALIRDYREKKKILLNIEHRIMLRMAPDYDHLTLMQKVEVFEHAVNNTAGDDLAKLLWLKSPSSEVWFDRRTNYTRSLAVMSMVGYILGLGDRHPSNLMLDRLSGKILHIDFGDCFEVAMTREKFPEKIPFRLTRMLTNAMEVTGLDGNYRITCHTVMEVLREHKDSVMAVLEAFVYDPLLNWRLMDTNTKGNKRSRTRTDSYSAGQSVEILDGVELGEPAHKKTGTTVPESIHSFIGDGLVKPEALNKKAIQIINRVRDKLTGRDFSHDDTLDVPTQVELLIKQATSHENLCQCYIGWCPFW

Row | Compound | pIC50 (Human mTOR (FLAG-TOR)) | pIC50 (PI3K-α) | pIC50 (PI3K-γ; read-out: IC50 PI3Kγ) | pIC50 [1] | pIC50 (PI3K-γ)
1 | CN1CCN(c2ccc(NC(=O)Nc3ccc(-c4nc(N5CC[S+]([O-])CC5)nc(N5C6CCC5COC6)n4)cc3)cc2)CC1 [Example 426, 1-(4-(4-(3-oxa-8-azabicyclo[3.2.1]octan-8-yl)-6-sulfoxymorpholino-1,3,5-triazin-2-yl)phenyl)-3-(4-(4-methylpiperazin-1-yl)phenyl)urea] | 7.28 | 5.91 | 5.07 | 6.15 | –
2 | C[C@@H]1COCCN1c1nc(-c2ccc(NC(=O)Nc3ccc(OCCN(C)C)cc3)cc2)nc(C2CCOCC2)n1 [Example 427, (R)-1-(4-(2-(dimethylamino)ethoxy)phenyl)-3-(4-(4-(3-methylmorpholino)-6-(tetrahydro-2H-pyran-4-yl)-1,3,5-triazin-2-yl)phenyl)urea] | 8.89 | 6.24 | 5.85 | 8.15 | –
3 | O=C(Nc1ccc(-c2nc(C3CCOCC3)nc(N3C4CCC3COC4)n2)cc1)Nc1ccc(N2CCN(C3CC3)CC2)cc1 [Example 436, 1-(4-(4-(3-oxa-8-azabicyclo[3.2.1]octan-8-yl)-6-(tetrahydro-2H-pyran-4-yl)-1,3,5-triazin-2-yl)phenyl)-3-(4-(4-cyclopropylpiperazin-1-yl)phenyl)urea] | 9.21 | 6.13 | 5.51 | 8.00 | –
4 | C[C@@H]1COCCN1c1nc(-c2ccc(NC(=O)Nc3ccc(N4CCN(C5CC5)CC4)cc3)cc2)nc(N2C3CCC2COC3)n1 [Example 442, 1-(4-(4-(3-oxa-8-azabicyclo[3.2.1]octan-8-yl)-6-((R)-3-methylmorpholino)-1,3,5-triazin-2-yl)phenyl)-3-(4-(4-cyclopropylpiperazin-1-yl)phenyl)urea] | 8.82 | 5.76 | – | 7.89 | < 5.00
5 | C[C@@H]1COCCN1c1nc(-c2ccc(NC(=O)Nc3ccc(N4CCN(C)CC4)nc3)cc2)nc(N2C3CCC2COC3)n1 [Example 446, 1-(4-(4-(3-oxa-8-azabicyclo[3.2.1]octan-8-yl)-6-((R)-3-methylmorpholino)-1,3,5-triazin-2-yl)phenyl)-3-(6-(4-methylpiperazin-1-yl)pyridin-3-yl)urea] | 9.09 | 6.08 | 5.40 | 7.82 | –
6 | CCN1CCN(c2ccc(NC(=O)Nc3ccc(-c4nc(N5CCOC[C@H]5C)nc(N5CCOC[C@H]5C)n4)cc3)cc2)CC1 [Example 447, 1-(4-(4,6-bis((R)-3-methylmorpholino)-1,3,5-triazin-2-yl)phenyl)-3-(4-(4-ethylpiperazin-1-yl)phenyl)urea] | 8.72 | 6.41 | 5.55 | 8.10 | –
7 | C[C@@H]1COCCN1c1nc(-c2ccc(NC(=O)Nc3ccc(C(=O)N4CCN(C)CC4)cc3)cc2)nc(N2CCOC[C@H]2C)n1 [Example 450, 1-(4-(4,6-bis((R)-3-methylmorpholino)-1,3,5-triazin-2-yl)phenyl)-3-(4-(4-methylpiperazine-1-carbonyl)phenyl)urea] | 8.77 | 7.12 | 6.05 | > 9.10 | –
8 | NC(=O)c1ccc(NC(=O)Nc2ccc(-c3nc(C4CCOCC4)nc(N4C5CCC4COC5)n3)cc2)cc1 [Example 454, 4-(3-(4-(4-(3-oxa-8-azabicyclo[3.2.1]octan-8-yl)-6-(tetrahydro-2H-pyran-4-yl)-1,3,5-triazin-2-yl)phenyl)ureido)benzamide] | 9.70 | 6.56 | 5.83 | > 9.10 | –
9 | CN(C)C(=O)c1ccc(NC(=O)Nc2ccc(-c3nc(C4CCOCC4)nc(N4C5CCC4COC5)n3)cc2)cc1 [Example 455, 4-(3-(4-(4-(3-oxa-8-azabicyclo[3.2.1]octan-8-yl)-6-(tetrahydro-2H-pyran-4-yl)-1,3,5-triazin-2-yl)phenyl)ureido)-N,N-dimethylbenzamide] | 9.52 | 6.95 | 5.86 | > 9.10 | –
10 | O=C(Nc1ccc(C(=O)N2CCCC2)cc1)Nc1ccc(-c2nc(C3CCOCC3)nc(N3C4CCC3COC4)n2)cc1 [Example 456, 1-(4-(4-(3-oxa-8-azabicyclo[3.2.1]octan-8-yl)-6-(tetrahydro-2H-pyran-4-yl)-1,3,5-triazin-2-yl)phenyl)-3-(4-(pyrrolidine-1-carbonyl)phenyl)urea] | 9.15 | 6.82 | 5.81 | > 9.10 | –
11 | CNCCNC(=O)c1ccc(NC(=O)Nc2ccc(-c3nc(C4CCOCC4)nc(N4C5CCC4COC5)n3)cc2)cc1 [Example 458, 4-(3-(4-(4-(3-oxa-8-azabicyclo[3.2.1]octan-8-yl)-6-(tetrahydro-2H-pyran-4-yl)-1,3,5-triazin-2-yl)phenyl)ureido)-N-(2-(methylamino)ethyl)benzamide] | 9.70 | 7.48 | 6.29 | 8.10 | –
12 | CN(C)CCN(C)C(=O)c1ccc(NC(=O)Nc2ccc(-c3nc(C4CCOCC4)nc(N4C5CCC4COC5)n3)cc2)cc1 [Example 459, 4-(3-(4-(4-(3-oxa-8-azabicyclo[3.2.1]octan-8-yl)-6-(tetrahydro-2H-pyran-4-yl)-1,3,5-triazin-2-yl)phenyl)ureido)-N-(2-(dimethylamino)ethyl)-N-methylbenzamide] | 9.52 | 7.59 | 6.32 | > 9.10 | –
13 | O=C(Nc1ccc(C(=O)N2CCOCC2)cc1)Nc1ccc(-c2nc(C3CCOCC3)nc(N3C4CCC3COC4)n2)cc1 [Example 460, 1-(4-(4-(3-oxa-8-azabicyclo[3.2.1]octan-8-yl)-6-(tetrahydro-2H-pyran-4-yl)-1,3,5-triazin-2-yl)phenyl)-3-(4-(morpholine-4-carbonyl)phenyl)urea] | 9.40 | 6.84 | 5.97 | > 9.10 | –

Further lines, with some results ahead:

Row | pIC50 (Human mTOR (FLAG-TOR)) | pIC50 (PI3K-α) | pIC50 (PI3K-γ; read-out: IC50 PI3Kγ) | pIC50 [1] | Compound | pIC50 (PI3K-γ)
14 | 8.85 | 6.35 | 6.08 | 9.00 | CCN1CCN(c2ccc(NC(=O)Nc3ccc(-c4nc(C5CCOCC5)nc(N5CCOC[C@H]5C)n4)cc3)cc2)CC1 [Example 428, (R)-1-(4-(4-ethylpiperazin-1-yl)phenyl)-3-(4-(4-(3-methylmorpholino)-6-(tetrahydro-2H-pyran-4-yl)-1,3,5-triazin-2-yl)phenyl)urea] | –
15 | 8.72 | 6.32 | 6.00 | 8.05 | CC(C)N1CCN(c2ccc(NC(=O)Nc3ccc(-c4nc(C5CCOCC5)nc(N5CCOC[C@H]5C)n4)cc3)cc2)CC1 [Example 429, (R)-1-(4-(4-isopropylpiperazin-1-yl)phenyl)-3-(4-(4-(3-methylmorpholino)-6-(tetrahydro-2H-pyran-4-yl)-1,3,5-triazin-2-yl)phenyl)urea] | –
16 | 8.77 | 6.40 | 6.32 | 7.80 | C[C@@H]1COCCN1c1nc(-c2ccc(NC(=O)Nc3ccc(N4CCC(N(C)C)CC4)cc3)cc2)nc(C2CCOCC2)n1 [Example 430, (R)-1-(4-(4-(dimethylamino)piperidin-1-yl)phenyl)-3-(4-(4-(3-methylmorpholino)-6-(tetrahydro-2H-pyran-4-yl)-1,3,5-triazin-2-yl)phenyl)urea] | –
17 | 9.00 | 7.37 | 6.47 | > 9.10 | C[C@@H]1COCCN1c1nc(-c2ccc(NC(=O)Nc3ccc(C(=O)N4CCN(C)CC4)cc3)cc2)nc(C2CCOCC2)n1 [Example 431, (R)-1-(4-(4-(3-methylmorpholino)-6-(tetrahydro-2H-pyran-4-yl)-1,3,5-triazin-2-yl)phenyl)-3-(4-(4-methylpiperazine-1-carbonyl)phenyl)urea] | –
18 | 9.16 | 7.05 | 6.32 | > 9.10 | CC(C)N1CCN(C(=O)c2ccc(NC(=O)Nc3ccc(-c4nc(C5CCOCC5)nc(N5CCOC[C@H]5C)n4)cc3)cc2)CC1 [Example 432, (R)-1-(4-(4-isopropylpiperazine-1-carbonyl)phenyl)-3-(4-(4-(3-methylmorpholino)-6-(tetrahydro-2H-pyran-4-yl)-1,3,5-triazin-2-yl)phenyl)urea] | –
19 | 8.64 | 6.28 | – | 7.74 | CC(C)N1CCN(c2ccc(NC(=O)Nc3ccc(-c4nc(N5CCOC[C@H]5C)nc(N5CCOC[C@H]5C)n4)cc3)cc2)CC1 [Example 448, 1-(4-(4,6-bis((R)-3-methylmorpholino)-1,3,5-triazin-2-yl)phenyl)-3-(4-(4-isopropylpiperazin-1-yl)phenyl)urea] | < 5.00
20 | 8.85 | 7.07 | 6.15 | > 9.10 | CC(C)N1CCN(C(=O)c2ccc(NC(=O)Nc3ccc(-c4nc(N5CCOC[C@H]5C)nc(N5CCOC[C@H]5C)n4)cc3)cc2)CC1 [Example 451, 1-(4-(4,6-bis((R)-3-methylmorpholino)-1,3,5-triazin-2-yl)phenyl)-3-(4-(4-isopropylpiperazine-1-carbonyl)phenyl)urea] | –
21 | 9.26 | 7.39 | 6.30 | > 9.10 | C[C@@H]1COCCN1c1nc(-c2ccc(NC(=O)Nc3ccc(C(=O)N(C)C)cc3)cc2)nc(N2CCOC[C@H]2C)n1 [Example 452, 4-(3-(4-(4,6-bis((R)-3-methylmorpholino)-1,3,5-triazin-2-yl)phenyl)ureido)-N,N-dimethylbenzamide] | –
22 | 8.48 | 6.18 | 5.37 | 7.52 | C[C@@H]1COCCN1c1nc(-c2ccc(NC(=O)Nc3ccc(CN4CCCC4)cc3)cc2)nc(N2CCOC[C@H]2C)n1 [Example 453, 1-(4-(4,6-bis((R)-3-methylmorpholino)-1,3,5-triazin-2-yl)phenyl)-3-(4-(pyrrolidin-1-ylmethyl)phenyl)urea] | –
